Measured values as given in article PMC5431086, “The Rational Design of Therapeutic Peptides for Aminopeptidase N using a Substrate-Based Approach” (Scientific Reports, 2017).
Where “and” joins values, the source holds several entries; their conditions need not be identical. Equal values may be shown once. Starred links: 1 amine or outer side, 2 acyl side, 3 side chain; linkers in the order of their positions; H or OH if unused. Positions of bridges follow the written chain, without caps; N, C: chain ends. Non-standard residues stand in square brackets, D forms with d. Residues, ends and D or L forms follow the SMILES beside them. No end group written: not given here. *: point of attachment. Suc = O=C(CCC(=O)[*:2])[*:1]; Nle = CCCC[C@H](N)C(=O)O; Cbz = O=C(OCc1ccccc1)*; For = O=C*

Assays:
[1] = target: T1, hAPN (aminopeptidase N) (Homo sapiens, UniProt P15144); assay: Inhibition of cleavage of fluorogenic alanine substrate (H-Ala-AMC) by APN; assay type: biochemical; conditions: 0.1 μM APN, 100 μM H-Ala-AMC; for Ki: APN, Ki from IC50 by Cheng-Prusoff equation; for IC50: pH 7.2, 37 °C, triplicate
T1 construct: human APN ecdomain (residues 66–967) were expressed and purified as previously described; honeybee-melittin signal peptide (N); His6 (C); made in house; host or cells: insect cells
Procedure: Five-residue long peptides containing P1–P4′ residues from primary cleavages in the library were synthesized and tested for their ability to prevent the cleavage of a fluorogenic alanine substrate by hAPN.
The peptides used in this study were custom synthesized by AAPPTEC of Louisville, KY using traditional Fmoc solid-phase peptide synthesis. All of the peptides were purified and characterized by AAPPTEC. […] Inhibition assays were performed in triplicate in a 100 mM Tris pH 7.2, Brij 35 0.0002% w/v assay buffer at 37 °C with 0.1 μM APN and 100 μM H-Ala-AMC (fluorophore). Values were recorded by Infinite pro plate reader every 2 minutes for 30 minutes with laser parameters set for excitation at 355 nm and emission at 460 nm.

[2] = target: aminopeptidase A (Homo sapiens, UniProt Q07075); assay: Protease selectivity panel, aminopeptidase A; assay type: biochemical
Procedure: (§1) Next, the specificity of the lead peptide inhibitor cyc-LHSPW was tested against a panel of cancer-associated proteases with wide-ranging substrate specificities (Fig. 5A). APN was the only protease inhibited by cyc-LHSPW with chymotrypsin, trypsin, PSA, KLK7, aminopeptidase A, and the exopeptidase FAP all having Ki values above 100 μM. Having assessed selectivity for purified APN, we next evaluated the ability of cyc-LHSPW to preferentially bind to cells that express surface APN using flow cytometry (Fig. 5B). […] The expression of cell surface-associated APN was examined in the androgen receptor negative neuroendocrine prostate cancer cell lines PC3 and DU145 using a commercially available antibody. […] The peptide was next tested on frozen PC3 and DU145 tumor xenografts sections.
(§2) Figure 5 Determining the specificity of cyc-LHSPW for APN. (A) The cyc-LHSPW peptide was specific inhibitor of APN when compared to a panel of proteases. (B) Fluorescence microscopy of frozen PC3 (left) and DU145 (right) xenograft sections with cyc-LHSPW-(Gly)4-FITC. Sections were incubated with 250 nM of cyc-LHSPW-(Gly)4-FITC overnight and then visualized. The merged fluoresence channels are cyc-LHSPW-(Gly)4-FITC (green) and nuclei (DAPI, blue). (C) Analysis of APN inhibitor binding to PC3 (left) and DU145 cells (right) by flow cytometry. […]

[3] = target: T2, FAP (Homo sapiens, UniProt Q12884); assay: Protease selectivity panel, FAP; assay type: biochemical
T2 sequence (Q12884 1-760): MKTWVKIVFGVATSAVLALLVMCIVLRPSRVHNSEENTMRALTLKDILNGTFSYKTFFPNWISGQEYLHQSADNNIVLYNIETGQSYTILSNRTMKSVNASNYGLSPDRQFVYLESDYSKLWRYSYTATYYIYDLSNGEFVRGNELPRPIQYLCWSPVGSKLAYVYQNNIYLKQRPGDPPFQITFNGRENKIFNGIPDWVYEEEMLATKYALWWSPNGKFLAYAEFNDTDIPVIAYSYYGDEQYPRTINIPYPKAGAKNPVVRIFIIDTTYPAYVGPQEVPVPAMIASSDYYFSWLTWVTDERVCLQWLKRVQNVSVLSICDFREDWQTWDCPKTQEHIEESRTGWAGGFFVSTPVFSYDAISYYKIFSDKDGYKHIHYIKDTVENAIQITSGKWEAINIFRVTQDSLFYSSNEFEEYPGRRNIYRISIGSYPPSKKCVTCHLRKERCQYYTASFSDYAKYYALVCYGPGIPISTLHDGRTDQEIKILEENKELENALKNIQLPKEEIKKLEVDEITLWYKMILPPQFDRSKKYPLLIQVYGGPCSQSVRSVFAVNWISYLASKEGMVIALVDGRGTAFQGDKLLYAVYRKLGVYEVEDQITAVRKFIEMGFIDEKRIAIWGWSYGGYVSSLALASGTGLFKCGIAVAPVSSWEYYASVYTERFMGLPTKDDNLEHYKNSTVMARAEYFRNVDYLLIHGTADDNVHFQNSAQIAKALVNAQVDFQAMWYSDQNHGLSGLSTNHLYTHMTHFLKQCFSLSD
Procedure: as §1, §2

[4] = target: PSA (Homo sapiens, UniProt P07288); assay: Protease selectivity panel, PSA; assay type: biochemical
Procedure: as §1, §2

[5] = target: KLK7 (Homo sapiens, UniProt P49862); assay: Protease selectivity panel, KLK7; assay type: biochemical
Procedure: as §1, §2

[6] = Toxicity study, i.v. administration; assay type: in vivo; conditions: mice
Procedure: The potential therapeutic efficacy of cyc-LHSPW was next tested in vitro using the PC3 and DU145 cell lines. […] Prior to in vivo therapeutic efficacy studies, a toxicity study was performed with the i.v. administration of cyc-LHSPW. […] Mice bearing established PC3 and DU145 xenografts were treated systemically via tail vein injection with 40 mg/kg of the tumor homing APN peptide cyc-NGR or the cyc-LHSPW peptide t.i.w. x4 (Fig. 6B). […] This therapeutic effect persisted to the end of the study with the cyc-LHSPW-treated mice having a tumor volume of 309.3 ± 92.7 mm^3 at day 35. […] PC3 tumors were removed and stained for the cellular proliferation marker Ki67.

T1 sequence (P15144 66-967): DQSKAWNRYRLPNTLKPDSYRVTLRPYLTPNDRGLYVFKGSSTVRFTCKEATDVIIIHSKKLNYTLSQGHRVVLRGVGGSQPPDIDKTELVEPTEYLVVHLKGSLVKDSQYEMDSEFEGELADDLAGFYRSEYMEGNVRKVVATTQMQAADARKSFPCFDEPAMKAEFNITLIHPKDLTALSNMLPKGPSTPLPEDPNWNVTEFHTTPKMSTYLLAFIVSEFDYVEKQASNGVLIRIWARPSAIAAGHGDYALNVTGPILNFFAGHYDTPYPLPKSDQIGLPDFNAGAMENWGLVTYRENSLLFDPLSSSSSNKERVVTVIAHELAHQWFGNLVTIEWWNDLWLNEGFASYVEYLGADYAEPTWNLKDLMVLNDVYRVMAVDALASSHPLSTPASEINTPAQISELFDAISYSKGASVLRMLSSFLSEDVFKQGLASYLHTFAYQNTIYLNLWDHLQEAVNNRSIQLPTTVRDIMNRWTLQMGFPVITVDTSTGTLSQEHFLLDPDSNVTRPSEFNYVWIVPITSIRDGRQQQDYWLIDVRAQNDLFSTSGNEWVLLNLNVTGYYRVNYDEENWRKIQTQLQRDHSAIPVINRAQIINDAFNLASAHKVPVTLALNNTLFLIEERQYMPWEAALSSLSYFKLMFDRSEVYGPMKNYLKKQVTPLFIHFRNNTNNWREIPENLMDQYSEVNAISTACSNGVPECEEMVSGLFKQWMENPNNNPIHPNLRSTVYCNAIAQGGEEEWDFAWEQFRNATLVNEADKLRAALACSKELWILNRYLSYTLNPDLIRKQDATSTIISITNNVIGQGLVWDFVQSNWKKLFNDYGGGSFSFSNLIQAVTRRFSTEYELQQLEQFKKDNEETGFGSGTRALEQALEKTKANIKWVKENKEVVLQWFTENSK
Chain of aminopeptidase A (Q07075 whole entry, species assumed): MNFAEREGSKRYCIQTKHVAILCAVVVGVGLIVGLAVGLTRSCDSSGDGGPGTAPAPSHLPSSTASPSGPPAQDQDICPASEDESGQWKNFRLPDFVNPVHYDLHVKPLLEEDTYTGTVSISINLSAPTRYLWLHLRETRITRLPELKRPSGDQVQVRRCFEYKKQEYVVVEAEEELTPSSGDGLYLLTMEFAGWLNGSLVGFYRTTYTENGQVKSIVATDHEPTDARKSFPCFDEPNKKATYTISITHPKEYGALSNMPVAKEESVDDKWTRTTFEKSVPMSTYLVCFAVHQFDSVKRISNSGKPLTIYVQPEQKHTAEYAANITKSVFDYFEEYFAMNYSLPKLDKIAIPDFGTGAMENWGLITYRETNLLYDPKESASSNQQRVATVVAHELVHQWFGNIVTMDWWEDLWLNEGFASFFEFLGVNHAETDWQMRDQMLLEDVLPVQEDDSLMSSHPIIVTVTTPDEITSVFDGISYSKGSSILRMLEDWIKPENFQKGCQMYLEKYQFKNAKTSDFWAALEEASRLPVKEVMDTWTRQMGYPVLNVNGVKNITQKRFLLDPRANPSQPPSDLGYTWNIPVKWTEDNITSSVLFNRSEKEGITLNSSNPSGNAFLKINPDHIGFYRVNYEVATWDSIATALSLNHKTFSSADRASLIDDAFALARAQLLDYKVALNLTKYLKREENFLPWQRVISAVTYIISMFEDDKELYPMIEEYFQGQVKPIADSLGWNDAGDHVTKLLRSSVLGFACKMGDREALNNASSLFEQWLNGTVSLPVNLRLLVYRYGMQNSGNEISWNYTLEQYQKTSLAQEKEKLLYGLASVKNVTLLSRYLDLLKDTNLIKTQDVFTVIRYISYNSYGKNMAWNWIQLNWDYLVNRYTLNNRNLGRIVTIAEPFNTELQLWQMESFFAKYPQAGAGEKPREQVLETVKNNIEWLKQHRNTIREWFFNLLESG
Chain of KLK7 (P49862 30-253, species assumed): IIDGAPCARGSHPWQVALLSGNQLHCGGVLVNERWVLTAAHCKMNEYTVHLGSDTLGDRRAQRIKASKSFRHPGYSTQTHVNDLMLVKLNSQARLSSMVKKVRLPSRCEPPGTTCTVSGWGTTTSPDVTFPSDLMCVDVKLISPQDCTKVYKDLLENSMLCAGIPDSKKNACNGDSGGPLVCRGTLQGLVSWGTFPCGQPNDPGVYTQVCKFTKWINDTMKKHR
Chain of PSA (P07288 25-261): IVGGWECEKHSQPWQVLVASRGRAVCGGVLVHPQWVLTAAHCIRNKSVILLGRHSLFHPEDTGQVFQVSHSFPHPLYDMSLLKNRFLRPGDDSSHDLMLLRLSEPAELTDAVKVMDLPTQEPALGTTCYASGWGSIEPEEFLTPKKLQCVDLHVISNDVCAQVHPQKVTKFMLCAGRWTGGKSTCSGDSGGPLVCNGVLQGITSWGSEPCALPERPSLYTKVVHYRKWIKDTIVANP

Ki [1] | IC50 [1] | Compound | further results
> 500 µM | – | CC(=O)N[C@@H](Cc1c[nH]cn1)C(=O)N[C@@H](CO)C(=O)N1CCC[C@H]1C(=O)N[C@@H](Cc1c[nH]c2ccccc12)C(=O)O [Ac-HSPW] (Ac-HSPW-OH; C-terminus assumed) | –
> 500 µM | – | O=C(N[C@@H](Cc1c[nH]cn1)C(=O)N[C@@H](CO)C(=O)N1CCC[C@H]1C(=O)N[C@@H](Cc1c[nH]c2ccccc12)C(=O)O)OCc1ccccc1 [Cbz-HSPW] (Cbz-HSPW-OH; C-terminus assumed) | –
> 500 µM | – | CC(C)C[C@H](NC(=O)OCc1ccccc1)C(=O)N[C@@H](Cc1c[nH]cn1)C(=O)N[C@@H](CO)C(=O)N1CCC[C@H]1C(=O)N[C@@H](Cc1c[nH]c2ccccc12)C(=O)O [Cbz-LHSPW] (Cbz-LHSPW-OH) | –
– | > 500 µM | C[C@H](NC(=O)[C@@H](N)CC(=O)O)C(=O)N[C@@H](CCCNC(=N)N)C(=O)N[C@@H](CCCCN)C(=O)O [DARK] (H-DARK-OH) | –
– | > 500 µM | C[C@@H](O)[C@H](NC(=O)[C@H](CO)NC(=O)[C@@H](N)CC(=O)O)C(=O)N[C@@H](Cc1ccccc1)C(=O)O [DSTF] (H-DSTF-OH) | –
> 500 µM | – | O=CN[C@@H](Cc1c[nH]cn1)C(=O)N[C@@H](CO)C(=O)N1CCC[C@H]1C(=O)N[C@@H](Cc1c[nH]c2ccccc12)C(=O)O [For-HSPW] (For-HSPW-OH; C-terminus assumed) | –
> 500 µM | – | CC(C)C[C@H](NC=O)C(=O)N[C@@H](Cc1c[nH]cn1)C(=O)N[C@@H](CO)C(=O)N1CCC[C@H]1C(=O)N[C@@H](Cc1c[nH]c2ccccc12)C(=O)O [For-LHSPW] (For-LHSPW-OH) | –
– | 43 µM and 43.3 µM | N[C@@H](Cc1c[nH]cn1)C(=O)N[C@@H](CO)C(=O)N1CCC[C@H]1C(=O)N[C@@H](Cc1c[nH]c2ccccc12)C(=O)O [HSPW] (H-HSPW-OH; N-terminus and C-terminus assumed) | –
> 500 µM | – | O=C(O)CCC(=O)N[C@@H](Cc1c[nH]cn1)C(=O)N[C@@H](CO)C(=O)N1CCC[C@H]1C(=O)N[C@@H](Cc1c[nH]c2ccccc12)C(=O)O [Suc-HSPW] (Suc-HSPW-OH; C-terminus assumed) | –
> 500 µM | – | CC(C)C[C@H](NC(=O)CCC(=O)O)C(=O)N[C@@H](Cc1c[nH]cn1)C(=O)N[C@@H](CO)C(=O)N1CCC[C@H]1C(=O)N[C@@H](Cc1c[nH]c2ccccc12)C(=O)O [Suc-LHSPW] (Suc-LHSPW-OH) | –
> 500 µM | – | C[C@@H]1NC(=O)[C@H](CC(=O)O)NC(=O)[C@H](C)NC(=O)[C@@H](N)CSSC[C@@H](C(=O)O)NC(=O)[C@H](CCCCN)NC(=O)[C@H](CCCNC(=N)N)NC1=O [cyc-ADARK] (H-CADARKC-OH; disulfide 1-7) | –
> 500 µM | – | C[C@@H]1NC(=O)[C@@H](N)CSSC[C@@H](C(=O)O)NC(=O)[C@H](Cc2c[nH]c3ccccc23)NC(=O)[C@@H]2CCCN2C(=O)[C@H](CO)NC(=O)[C@H](Cc2c[nH]cn2)NC1=O [cyc-AHSPW, Cys-AHSPW-Cys] (H-CAHSPWC-OH; disulfide 1-7) | –
> 500 µM | – | CC(C)C[C@@H]1NC(=O)[C@@H](N)CSSC[C@@H](C(=O)O)NC(=O)[C@H](Cc2ccccc2)NC(=O)[C@H]([C@@H](C)O)NC(=O)[C@H](CO)NC(=O)[C@H](CC(=O)O)NC1=O [cyc-LDSTF] (H-CLDSTFC-OH; disulfide 1-7) | –
121 ± 21.4 µM | – | CC(C)C[C@@H]1NC(=O)[C@@H](N)CSSC[C@@H](C(=O)O)NC(=O)[C@@H]2CCCN2C(=O)[C@H](CO)NC(=O)[C@H](Cc2c[nH]cn2)NC1=O [cyc-LHSP] (H-CLHSPC-OH; disulfide 1-6) | –
> 500 µM | – | CC(C)C[C@@H]1NC(=O)[C@@H](N)CSSC[C@@H](C(=O)O)NC(=O)[C@H](CO)NC(=O)[C@H](Cc2c[nH]cn2)NC1=O [cyc-LHS] (H-CLHSC-OH; disulfide 1-5) | –
> 500 µM | – | N[C@H]1CSSC[C@@H](C(=O)O)NC(=O)[C@H](Cc2c[nH]c3ccccc23)NC(=O)[C@@H]2CCCN2C(=O)[C@H](CO)NC(=O)[C@H](Cc2c[nH]cn2)NC(=O)[C@@H]2CCCN2C1=O [cyc-PHSPW, Cys-PHSPW-Cys] (H-CPHSPWC-OH; disulfide 1-7) | –
– | > 500 µM | CCCC[C@H](N)C(=O)N[C@@H](CC(=O)O)C(=O)N[C@@H](CCC(N)=O)C(=O)N[C@H](C(=O)N[C@@H](Cc1ccc(O)cc1)C(=O)O)[C@@H](C)CC [nDQIY] (H-[Nle]DQIY-OH) | –

Ki [1] | IC50 [1] | Compound | further results
– | 6.5 ± 0.5 µM | CCCC[C@H](N)C(=O)N[C@@H](Cc1c[nH]cn1)C(=O)N[C@@H](CO)C(=O)N1CCC[C@H]1C(=O)N[C@@H](Cc1c[nH]c2ccccc12)C(=O)O [nHSPW] (H-[Nle]HSPW-OH) | –
– | > 500 µM | ADARK [ADARK] | –
– | > 500 µM | AHLFN [AHLFN] | –
– | 9.4 ± 1.1 µM | AHSPW [AHSPW] | –
– | > 500 µM | AHSTF [AHSTF] | –
> 500 µM | – | Ac-LHSPW [Ac-LHSPW] | –
– | 115 ± 17.2 µM | EHSPW [EHSPW] | –
– | > 500 µM | EPKVA [EPKVA] | –
– | > 500 µM | FDWWG [FDWWG] | –
– | > 500 µM | FSLSK [FSLSK] | –
– | > 500 µM | FYLRE [FYLRE] | –
– | > 500 µM | INDFL [INDFL] | –
– | > 500 µM | LDSTF [LDSTF] | –
– | 10.6 ± 1.2 µM | LHSPW [LHSPW] | –
– | 82.5 ± 9.3 µM | PHSPW [PHSPW] | –
– | > 500 µM | RDLVD [RDLVD] | –
– | > 500 µM | SKSGQ [SKSGQ] | –

Compound | Ki [1] | IC50 [1] | further results
CC(C)C[C@@H]1NC(=O)[C@@H](N)CSSC[C@@H](C(=O)O)NC(=O)[C@H](Cc2c[nH]c3ccccc23)NC(=O)[C@@H]2CCCN2C(=O)[C@H](CO)NC(=O)[C@H](Cc2c[nH]cn2)NC1=O [cyc-LHSPW, Cys-LHSPW-Cys] (H-CLHSPWC-OH; disulfide 1-7) | 24.7 ± 1.4 µM | – | Ki [2]: > 100 µM; Ki [3]: > 100 µM; Ki [4]: > 100 µM; Ki [5]: > 100 µM; tolerability ([6]; 40 mg/kg three time a week for four weeks (t.i.w. x4)): well tolerated, i.e. no signs of morbidity; tolerability ([6]; multiple doses of 100 mg/kg): resulted in cachexia; tolerability ([6]; single high dose of 100 mg/kg): well tolerated
